Results from ChEMBL document CHEMBL4806958, “Anti-cancer/anti-fibrosis compounds” (2020).
The source made the active and inactive calls. No cut-off for these calls is given here.

Assays:
MSTO-211H = test: Cytotoxicity against human MSTO-211H cells assessed as reduction in cell viability and measured after 7 days by Celltiter-glo luminescent cell viability assay; type: functional, cell-based; details: 168 h
MOLM-14 [1] = test: Down regulation of phosphorylated-STAT5 level in human MOLM-14 cells at 0.03 to 3 uM after 24 hrs by Western blotting analysis; type: functional, cell-based; details: dose 0.03-3 µM
A549 = test: Cytotoxicity against human A549 cells assessed as reduction in cell viability measured after 7 days by Celltiter-glo luminescent cell viability assay; type: functional, cell-based; details: A549, 168 h
MOLM-14 [2] = test: Cytotoxicity against human MOLM-14 cells assessed as reduction in cell viability measured after 7 days by Celltiter-glo luminescent cell viability assay; type: functional, cell-based; details: MOLM-14, 168 h
MV4-11 [3] = test: Antitumor activity against human MV-4-11 cells xenografted in NCr nu/nu mouse assessed as tumor growth inhibition at 50 mg/kg, po administered twice a day for 21 days and measured for every 3 days; type: functional, organism-based; details: time 21.0 day
CDK8/Cyclin C = CDK8/Cyclin C (Homo sapiens, UniProt P49336); test: Inhibition of kinase tracer 236 binding to His-tagged CDK8/cyclin C (unknown origin) incubated for 60 mins by LanthaScreen Eu-Kinase binding assay; type: protein-complex assay
MV4-11 [4] = test: Down regulation of MCL-1 level in human MV-4-11 cells at 0.03 to 3 uM after 48 hrs by Western blotting analysis; type: functional, cell-based; details: dose 0.03-3 µM
MV4-11 [5] = test: Down regulation of phosphorylated-STAT3 level in human MV-4-11 cells after 48 hrs by Western blotting analysis; type: functional, cell-based; details: dose 0.03-3 µM
MV4-11 [6] = test: Down regulation of phosphorylated-STAT5 level in human MV-4-11 cells after 24 hrs by Western blotting analysis; type: functional, cell-based; details: dose 0.03-10 µM
[7] = molecular target: Casein kinase II subunit alpha (Homo sapiens, UniProt P68400); test: Inhibition of CSNK2A1(unknown origin) using Ser/Thr 11 as substrate incubated for 60 mins in presence of ATP by Z'-LYTE assay
[8] = Toxicity in athymic nude mouse xenografted with human MOLM-14 cells assessed as effect on body weight at 50 mg/kg, po administered twice a day with 5 days on and 2 days off dosing schedule for 21 days and measured for every other day; type: organism-based; details: in vivo, 504 h, time 3 weeks
[9] = Cytotoxicity against human CLL-119 cells assessed as reduction in cell viability measured after 7 days by Celltiter-glo luminescent cell viability assay; type: functional, cell-based; details: CLL-119, 168 h
NCI-H2052 = test: Cytotoxicity against human H2052 cells assessed as reduction in cell viability and measured after 7 days by Celltiter-glo luminescent cell viability assay; type: functional, cell-based; details: NCI-H2052, 168 h
BT-474 = test: Cytotoxicity against human BT474 cells assessed as reduction in cell viability and measured after 7 days by Celltiter-glo luminescent cell viability assay; type: functional, cell-based; details: BT-474, 168 h
MV4-11 [10] = test: Down regulation of YAP level in human MV-4-11 cells at 0.03 to 3 uM after 48 hrs by Western blotting analysis; type: functional, cell-based; details: dose 0.03-3 µM
MV4-11 [11] = test: Down regulation of phosphorylated-STAT5 level in human MV-4-11 cells after 48 hrs by Western blotting analysis; type: functional, cell-based; details: dose 0.03-3 µM
MOLM-14 [12] = test: Down regulation of phosphorylated-STAT1 level in human MOLM-14 cells at 0.03 to 3 uM after 48 hrs by Western blotting analysis; type: functional, cell-based; details: dose 0.03-3 µM
COLO 205 = test: Cytotoxicity against human COLO-205 cells assessed as reduction in cell viability measured after 7 days by Celltiter-glo luminescent cell viability assay; type: functional, cell-based; details: COLO 205, 168 h
MV4-11 [13] = test: Down regulation of CYR61 level in human MV-4-11 cells at 0.03 to 3 uM after 48 hrs by Western blotting analysis; type: functional, cell-based; details: dose 0.03-3 µM
MV4-11 [14] = test: Down regulation of phosphorylated-STAT3 level in human MV-4-11 cells after 24 hrs by Western blotting analysis; type: functional, cell-based; details: dose 0.03-10 µM
OE33 = test: Cytotoxicity against human OE33 cells assessed as reduction in cell viability measured after 7 days by Celltiter-glo luminescent cell viability assay; type: functional, cell-based; details: OE33, 168 h
MV4-11 [15] = test: Down regulation of C-MYC level in human MV-4-11 cells at 0.03 to 3 uM after 48 hrs by Western blotting analysis; type: functional, cell-based; details: dose 0.03-3 µM
MOLM-14 [16] = test: Down regulation of phosphorylated-STAT5 level in mouse xenografted with human MOLM-14 cells at 50 mg/kg, po administered twice a day for 21 days by Western blotting analysis; type: functional, organism-based; details: time 21.0 day
MOLM-14 [17] = test: Down regulation of phosphorylated-STAT1 level in mouse xenografted with human MOLM-14 cells by Western blotting analysis; type: functional, cell-based; details: dose 10-100 mg/kg
HeLa = test: Cytotoxicity against human HeLa cells assessed as reduction in cell viability measured after 7 days by Celltiter-glo luminescent cell viability assay; type: functional, cell-based; details: 168 h
MV4-11 [18] = test: Down regulation of CTGF level in human MV-4-11 cells at 0.03 to 3 uM after 48 hrs by Western blotting analysis; type: functional, cell-based; details: dose 0.03-3 µM
Huh-7 = test: Cytotoxicity against human Huh-7 cells assessed as reduction in cell viability and measured after 7 days by Celltiter-glo luminescent cell viability assay; type: functional, cell-based; details: Huh-7, 168 h
MV4-11 [19] = test: Down regulation of phosphorylated-STAT1 level in human MV-4-11 cells after 48 hrs by Western blotting analysis; type: functional, cell-based; details: dose 0.03-3 µM
MOLM-14 [20] = test: Down regulation of phosphorylated-STAT3 level in human MOLM-14 cells at 0.03 to 3 uM after 24 hrs by Western blotting analysis; type: functional, cell-based; details: dose 0.03-3 µM
RS4-11 = test: Cytotoxicity against human RS4-11 cells assessed as reduction in cell viability measured after 7 days by Celltiter-glo luminescent cell viability assay; type: functional, cell-based; details: RS4-11, 168 h
[21] = molecular target: Homeodomain-interacting protein kinase 2 (Homo sapiens, UniProt Q9H2X6); test: Inhibition of HIPK2 (unknown origin) using Ser/Thr 09 as substrate incubated for 60 mins in presence of ATP by Z'-Lyte assay
MV4-11 [22] = test: Down regulation of phosphorylated-STAT1 level in human MV-4-11 cells after 24 hrs by Western blotting analysis; type: functional, cell-based; details: dose 0.03-10 µM
MOLM-14 [23] = test: Down regulation of phosphorylated-STAT1 level in human MOLM-14 cells at 0.03 to 3 uM after 24 hrs by Western blotting analysis; type: functional, cell-based; details: dose 0.03-3 µM
MOLM-14 [24] = test: Down regulation of phosphorylated-STAT5 level in human MOLM-14 cells at 0.03 to 3 uM after 48 hrs by Western blotting analysis; type: functional, cell-based; details: dose 0.03-3 µM
U-251 = test: Cytotoxicity against human U251 cells assessed as reduction in cell viability and measured after 7 days by Celltiter-glo luminescent cell viability assay; type: functional, cell-based; details: U-251, 168 h
COLO357 = test: Cytotoxicity against human COLO-357 cells assessed as reduction in cell viability and measured after 7 days by Celltiter-glo luminescent cell viability assay; type: functional, cell-based; details: COLO357, 168 h
SW-620 = test: Cytotoxicity against human SW620 cells assessed as reduction in cell viability measured after 7 days in presence of glycolysis inhibitor 2-DG by Celltiter-glo luminescent cell viability assay; type: functional, cell-based; details: SW-620, 168 h
MOLM-14 [25] = test: Down regulation of phosphorylated-STAT3 level in human MOLM-14 cells at 0.03 to 3 uM after 48 hrs by Western blotting analysis; type: functional, cell-based; details: dose 0.03-3 µM
MV4-11 [26] = test: Cytotoxicity against human MV-4-11 cells assessed as reduction in cell viability measured after 7 days by Celltiter-glo luminescent cell viability assay; type: functional, cell-based; details: MV4-11, 168 h

Sequence of CDK8/Cyclin C (P49336 whole entry): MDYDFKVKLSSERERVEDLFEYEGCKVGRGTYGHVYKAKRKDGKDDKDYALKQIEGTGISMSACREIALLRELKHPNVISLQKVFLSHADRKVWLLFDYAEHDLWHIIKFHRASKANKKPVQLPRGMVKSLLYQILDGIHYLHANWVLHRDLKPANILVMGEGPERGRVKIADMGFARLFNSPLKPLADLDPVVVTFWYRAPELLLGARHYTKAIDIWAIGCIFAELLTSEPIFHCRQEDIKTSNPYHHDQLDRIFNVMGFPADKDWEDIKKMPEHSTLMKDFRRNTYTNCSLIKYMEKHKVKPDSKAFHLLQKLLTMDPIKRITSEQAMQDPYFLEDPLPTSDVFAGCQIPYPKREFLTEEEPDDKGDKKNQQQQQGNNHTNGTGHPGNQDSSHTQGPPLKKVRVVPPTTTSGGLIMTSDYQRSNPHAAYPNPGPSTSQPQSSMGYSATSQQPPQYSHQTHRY
Sequence of CDK8/Cyclin C (P24863 whole entry, further chain): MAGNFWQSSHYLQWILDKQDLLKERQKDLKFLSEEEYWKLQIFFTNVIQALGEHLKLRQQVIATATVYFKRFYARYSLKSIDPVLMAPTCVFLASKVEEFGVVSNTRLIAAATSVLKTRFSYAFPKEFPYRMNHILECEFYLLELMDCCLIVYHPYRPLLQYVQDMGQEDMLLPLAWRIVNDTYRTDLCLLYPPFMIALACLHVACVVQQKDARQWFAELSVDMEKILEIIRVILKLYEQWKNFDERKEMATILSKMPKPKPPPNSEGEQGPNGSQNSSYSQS
Sequence of Homeodomain-interacting protein kinase 2 (Q9H2X6 whole entry): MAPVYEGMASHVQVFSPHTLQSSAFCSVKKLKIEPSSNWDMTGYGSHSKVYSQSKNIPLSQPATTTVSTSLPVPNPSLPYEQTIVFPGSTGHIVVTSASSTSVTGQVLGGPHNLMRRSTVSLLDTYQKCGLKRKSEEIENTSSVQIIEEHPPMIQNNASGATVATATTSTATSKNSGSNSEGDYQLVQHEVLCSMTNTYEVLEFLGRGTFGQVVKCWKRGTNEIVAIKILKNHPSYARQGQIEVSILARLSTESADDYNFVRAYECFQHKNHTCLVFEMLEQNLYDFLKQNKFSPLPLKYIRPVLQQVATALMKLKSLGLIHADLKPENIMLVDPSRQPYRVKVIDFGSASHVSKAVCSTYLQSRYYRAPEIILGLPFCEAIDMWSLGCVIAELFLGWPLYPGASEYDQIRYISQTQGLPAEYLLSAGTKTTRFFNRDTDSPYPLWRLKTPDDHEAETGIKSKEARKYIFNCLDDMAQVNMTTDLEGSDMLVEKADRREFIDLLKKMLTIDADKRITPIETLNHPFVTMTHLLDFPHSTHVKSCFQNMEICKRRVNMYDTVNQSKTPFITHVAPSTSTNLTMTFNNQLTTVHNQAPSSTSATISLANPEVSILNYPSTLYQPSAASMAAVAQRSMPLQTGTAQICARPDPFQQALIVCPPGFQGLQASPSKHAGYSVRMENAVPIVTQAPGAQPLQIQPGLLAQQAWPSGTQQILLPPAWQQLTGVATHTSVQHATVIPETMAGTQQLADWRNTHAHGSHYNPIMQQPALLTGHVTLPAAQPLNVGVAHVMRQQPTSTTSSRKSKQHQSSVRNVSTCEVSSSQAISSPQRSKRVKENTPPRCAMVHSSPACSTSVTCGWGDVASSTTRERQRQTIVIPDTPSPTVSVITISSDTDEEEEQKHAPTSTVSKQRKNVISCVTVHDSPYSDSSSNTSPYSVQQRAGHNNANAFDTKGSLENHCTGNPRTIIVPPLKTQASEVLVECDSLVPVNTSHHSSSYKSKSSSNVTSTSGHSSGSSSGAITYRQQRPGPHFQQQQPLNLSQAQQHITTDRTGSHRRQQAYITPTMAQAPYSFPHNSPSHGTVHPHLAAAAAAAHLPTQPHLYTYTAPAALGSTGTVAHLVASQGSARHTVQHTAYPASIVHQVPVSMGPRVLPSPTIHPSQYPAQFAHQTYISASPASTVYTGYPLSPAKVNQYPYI
Sequence of Casein kinase II subunit alpha (P68400 whole entry): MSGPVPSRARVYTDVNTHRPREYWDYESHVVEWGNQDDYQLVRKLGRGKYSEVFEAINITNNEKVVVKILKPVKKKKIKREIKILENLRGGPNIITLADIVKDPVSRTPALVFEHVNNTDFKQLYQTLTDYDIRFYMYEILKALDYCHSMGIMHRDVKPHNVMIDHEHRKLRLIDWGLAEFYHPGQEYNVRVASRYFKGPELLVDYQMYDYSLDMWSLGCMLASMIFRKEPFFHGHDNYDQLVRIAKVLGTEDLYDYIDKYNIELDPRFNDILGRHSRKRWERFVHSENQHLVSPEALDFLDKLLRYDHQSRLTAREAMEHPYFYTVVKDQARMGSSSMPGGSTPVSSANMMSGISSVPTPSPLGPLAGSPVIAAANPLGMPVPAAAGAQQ

In the case of `Nc1nccc2c(Br)cc3cc(C(=O)[O-])ccc3c12.[Na+]`, the IC50 (MSTO-211H) is reported as 1000 nM, the Activity (MOLM-14 [1]) is reported as “Active” and the IC50 (A549) is reported as 1000 nM. The IC50 (MOLM-14 [2]) was under 1000 nM, the Activity (MV4-11 [3]) was “Active” and the IC50 (CDK8/Cyclin C) was under 300 nM. The Activity (MV4-11 [4]) was “Active”, the Activity (MV4-11 [5]) was “Dose-Dependent Effect” and the Activity (MV4-11 [6]) was “Dose-Dependent Effect”. For the same molecule, the IC50 [7] was under 300 nM, the Activity [8] was “Non-Toxic” and the IC50 [9] was under 1000 nM. For the same molecule, the IC50 (NCI-H2052) was 1000 nM, the IC50 (BT-474) was 1000 nM and the Activity (MV4-11 [10]) was “Active”. For the same molecule, the Activity (MV4-11 [11]) was “Dose-Dependent Effect”, the Activity (MOLM-14 [12]) was “Active” and the IC50 (COLO 205) was under 1000 nM. The Activity (MV4-11 [13]) was “Active”, the Activity (MV4-11 [14]) was “Dose-Dependent Effect” and the IC50 (OE33) was under 1000 nM. For the same molecule, the Activity (MV4-11 [15]) was “Active”, the Activity (MOLM-14 [16]) was “Active” and the Activity (MOLM-14 [17]) was “Dose-Dependent Effect”. For the same molecule, the IC50 (HeLa) was 1000 nM, the Activity (MV4-11 [18]) was “Active” and the IC50 (Huh-7) was under 1000 nM. For the same molecule, the Activity (MV4-11 [19]) was “Dose-Dependent Effect”, the Activity (MOLM-14 [20]) was “Active” and the IC50 (RS4-11) was under 1000 nM. The IC50 [21] was under 300 nM, the Activity (MV4-11 [22]) was “Dose-Dependent Effect” and the Activity (MOLM-14 [23]) was “Active”. The Activity (MOLM-14 [24]) was “Active”, the IC50 (U-251) was 1000 nM and the IC50 (COLO357) was 1000 nM. For the same molecule, the IC50 (SW-620) was under 1000 nM, the Activity (MOLM-14 [25]) was “Active” and the IC50 (MV4-11 [26]) was under 1000 nM.
